In ChEMBL document CHEMBL1201862, “PubChem BioAssay data set” (2004):
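Compound exposure: 48 hours, 5 concentrations, 96-well plates. The concentration for 50% growth inhibition is given as GI50.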 Active and inactive are the calls of the source. Cut-off read from the data, not from the text of the source: active = GI50 up to about 1.1 µM and inactive = higher.

How the values were obtained:
Test in all cases: DTP human tumour cell line panel, 48 h
SF-268 = test system: SF-268
M14 = test system: M14
DU-145 = test system: DU-145
UACC-257 = test system: UACC-257
Malme-3M = test system: Malme-3M
HCT-15 = test system: HCT-15
K562 = test system: K562
MDA-MB-231 = test system: MDA-MB-231
IGROV-1 = test system: IGROV-1
HCC 2998 = test system: HCC 2998
TK-10 = test system: TK-10
CCRF-CEM = test system: CCRF-CEM
MOLT-4 = test system: MOLT-4
SN12C = test system: SN12C
KM12 = test system: KM12
MCF7 = test system: MCF7
MDA-N = test system: MDA-N
UACC-62 = test system: UACC-62
OVCAR-8 = test system: OVCAR-8
A549 = test system: A549
LOX IMVI = test system: LOX IMVI
RPMI-8226 = test system: RPMI-8226
CAKI-1 = test system: CAKI-1
SK-OV-3 = test system: SK-OV-3
786-0 = test system: 786-0
SK-MEL-5 = test system: SK-MEL-5
NCI-H23 = test system: NCI-H23
PC-3 = test system: PC-3
HL-60 = test system: HL-60
HT-29 = test system: HT-29
SK-MEL-28 = test system: SK-MEL-28
SNB-75 = test system: SNB-75
SR = test system: SR
SF-295 = test system: SF-295
RXF 393 = test system: RXF 393
SW-620 = test system: SW-620
T47D = test system: T47D
EKVX = test system: EKVX
HOP-62 = test system: HOP-62
SNB-19 = test system: SNB-19
A498 = test system: A498
HCT-116 = test system: HCT-116
SF-539 = test system: SF-539
OVCAR-3 = test system: OVCAR-3
MDA-MB-435 = test system: MDA-MB-435
Hs-578T = test system: Hs-578T
OVCAR-5 = test system: OVCAR-5
NCI-H460 = test system: NCI-H460
ACHN = test system: ACHN
NCI-H522 = test system: NCI-H522
U-251 = test system: U-251
SK-MEL-2 = test system: SK-MEL-2
HOP-92 = test system: HOP-92
OVCAR-4 = test system: OVCAR-4
COLO 205 = test system: COLO 205
UO-31 = test system: UO-31

SMILES: CSc1nc(C)c(CCOC(C)=O)c(N=P(c2ccccc2)(c2ccccc2)c2ccccc2)n1
- GI50 (SF-268): 4.12 µM (inactive)
- GI50 (M14): 5.61 µM (inactive)
- GI50 (DU-145): > 10 µM (inactive)
- GI50 (UACC-257): 6.18 µM (inactive)
- GI50 (Malme-3M): > 10 µM (inactive)
- GI50 (HCT-15): 4.89 µM
- GI50 (K562): 3.42 µM (inactive)
- GI50 (MDA-MB-231): 6.56 µM (inactive)
- GI50 (IGROV-1): > 10 µM (inactive)
- GI50 (HCC 2998): > 10 µM (inactive)
- GI50 (TK-10): > 10 µM (inactive)
- GI50 (CCRF-CEM): 3.89 µM (inactive)
- GI50 (MOLT-4): 2.11 µM (inactive)
- GI50 (SN12C): 6.78 µM (inactive)
- GI50 (KM12): 3.72 µM (inactive)
- GI50 (MCF7): 3.49 µM (inactive)
- GI50 (MDA-N): 4.05 µM (inactive)
- GI50 (UACC-62): 5.75 µM (inactive)
- GI50 (OVCAR-8): 4.88 µM (inactive)
- GI50 (A549): 5.12 µM (inactive)
- GI50 (LOX IMVI): 1.33 µM (inactive)
- GI50 (RPMI-8226): 3.14 µM (inactive)
- GI50 (CAKI-1): 8.26 µM (inactive)
- GI50 (SK-OV-3): > 10 µM (inactive)
- GI50 (786-0): > 10 µM (inactive)
- GI50 (SK-MEL-5): 6.81 µM (inactive)
- GI50 (NCI-H23): 3.77 µM (inactive)
- GI50 (PC-3): 2.53 µM (inactive)
- GI50 (HL-60): 2.82 µM (inactive)
- GI50 (HT-29): 4.07 µM (inactive)
- GI50 (SK-MEL-28): > 10 µM (inactive)
- GI50 (SNB-75): 4.28 µM (inactive)
- GI50 (SR): 2.54 µM (inactive)
- GI50 (SF-295): > 10 µM (inactive)
- GI50 (RXF 393): 2.89 µM (inactive)
- GI50 (SW-620): 4.97 µM (inactive)
- GI50 (T47D): 4.24 µM (inactive)
- GI50 (EKVX): > 10 µM (inactive)
- GI50 (HOP-62): 7.94 µM (inactive)

SMILES: O=C(/C=C/c1ccc(Cl)cc1)Oc1ccc(/C=C2\CCCCC2=O)cc1
- GI50 (SNB-19): > 10 µM (inactive)
- GI50 (SF-268): 69.7 µM (inactive)
- GI50 (M14): > 100 µM (inactive)
- GI50 (DU-145): > 100 µM (inactive)
- GI50 (A498): > 100 µM (inactive)
- GI50 (HCT-116): > 100 µM (inactive)
- GI50 (UACC-257): > 100 µM (inactive)
- GI50 (SF-539): > 100 µM (inactive)
- GI50 (OVCAR-3): > 100 µM (inactive)
- GI50 (Malme-3M): > 100 µM (inactive)
- GI50 (HCT-15): > 100 µM
- GI50 (MDA-MB-435): > 100 µM (inactive)
- GI50 (Hs-578T): > 100 µM (inactive)
- GI50 (OVCAR-5): > 100 µM (inactive)
- GI50 (MDA-MB-231): > 100 µM (inactive)
- GI50 (IGROV-1): > 100 µM (inactive)
- GI50 (HCC 2998): > 100 µM (inactive)
- GI50 (NCI-H460): > 100 µM (inactive)
- GI50 (TK-10): > 100 µM (inactive)
- GI50 (CCRF-CEM): 55.5 µM (inactive)
- GI50 (MOLT-4): 28.8 µM (inactive)
- GI50 (SN12C): > 100 µM (inactive)
- GI50 (KM12): > 100 µM (inactive)
- GI50 (MCF7): > 100 µM (inactive)
- GI50 (MDA-N): > 100 µM (inactive)
- GI50 (UACC-62): > 100 µM (inactive)
- GI50 (OVCAR-8): > 100 µM (inactive)
- GI50 (ACHN): > 100 µM (inactive)
- GI50 (NCI-H522): 50.8 µM (inactive)
- GI50 (U-251): > 100 µM (inactive)
- GI50 (A549): > 100 µM (inactive)
- GI50 (LOX IMVI): > 100 µM (inactive)
- GI50 (RPMI-8226): > 100 µM (inactive)
- GI50 (CAKI-1): > 100 µM (inactive)
- GI50 (786-0): > 100 µM (inactive)
- GI50 (SK-MEL-5): > 100 µM (inactive)
- GI50 (NCI-H23): > 100 µM (inactive)
- GI50 (PC-3): > 100 µM (inactive)
- GI50 (HL-60): 50.7 µM (inactive)
- GI50 (HT-29): 23 µM (inactive)
- GI50 (SK-MEL-28): > 100 µM (inactive)
- GI50 (SK-MEL-2): > 100 µM (inactive)
- GI50 (SNB-75): > 100 µM (inactive)
- GI50 (HOP-92): > 100 µM (inactive)
- GI50 (SR): > 100 µM (inactive)
- GI50 (SF-295): > 100 µM (inactive)
- GI50 (SW-620): > 100 µM (inactive)
- GI50 (T47D): > 100 µM (inactive)
- GI50 (OVCAR-4): > 100 µM (inactive)
- GI50 (COLO 205): > 100 µM (inactive)
- GI50 (UO-31): > 100 µM (inactive)
- GI50 (EKVX): > 100 µM (inactive)
- GI50 (HOP-62): > 100 µM (inactive)
